Laboratory results: patent US7183075B2, “Purified and isolated potassium-chloride cotransporter nucleic acids and polypeptides and therapeutic and screening methods using same” (Vanderbilt University, priority 2000, dated 2007)
Where two headings read alike, the source gives them in different places.

Tests used:
xKCC = biological target: T1, xKCC (Xenopus laevis, UniProt A0A1L8HZL0); experiment: 86Rb+ uptake by the endogenous K+-Cl- cotransporter of water-injected Xenopus oocytes; assay type: cell-based; conditions: for Km: xKCC
T1 sequence (A0A1L8HZL0 1-1133): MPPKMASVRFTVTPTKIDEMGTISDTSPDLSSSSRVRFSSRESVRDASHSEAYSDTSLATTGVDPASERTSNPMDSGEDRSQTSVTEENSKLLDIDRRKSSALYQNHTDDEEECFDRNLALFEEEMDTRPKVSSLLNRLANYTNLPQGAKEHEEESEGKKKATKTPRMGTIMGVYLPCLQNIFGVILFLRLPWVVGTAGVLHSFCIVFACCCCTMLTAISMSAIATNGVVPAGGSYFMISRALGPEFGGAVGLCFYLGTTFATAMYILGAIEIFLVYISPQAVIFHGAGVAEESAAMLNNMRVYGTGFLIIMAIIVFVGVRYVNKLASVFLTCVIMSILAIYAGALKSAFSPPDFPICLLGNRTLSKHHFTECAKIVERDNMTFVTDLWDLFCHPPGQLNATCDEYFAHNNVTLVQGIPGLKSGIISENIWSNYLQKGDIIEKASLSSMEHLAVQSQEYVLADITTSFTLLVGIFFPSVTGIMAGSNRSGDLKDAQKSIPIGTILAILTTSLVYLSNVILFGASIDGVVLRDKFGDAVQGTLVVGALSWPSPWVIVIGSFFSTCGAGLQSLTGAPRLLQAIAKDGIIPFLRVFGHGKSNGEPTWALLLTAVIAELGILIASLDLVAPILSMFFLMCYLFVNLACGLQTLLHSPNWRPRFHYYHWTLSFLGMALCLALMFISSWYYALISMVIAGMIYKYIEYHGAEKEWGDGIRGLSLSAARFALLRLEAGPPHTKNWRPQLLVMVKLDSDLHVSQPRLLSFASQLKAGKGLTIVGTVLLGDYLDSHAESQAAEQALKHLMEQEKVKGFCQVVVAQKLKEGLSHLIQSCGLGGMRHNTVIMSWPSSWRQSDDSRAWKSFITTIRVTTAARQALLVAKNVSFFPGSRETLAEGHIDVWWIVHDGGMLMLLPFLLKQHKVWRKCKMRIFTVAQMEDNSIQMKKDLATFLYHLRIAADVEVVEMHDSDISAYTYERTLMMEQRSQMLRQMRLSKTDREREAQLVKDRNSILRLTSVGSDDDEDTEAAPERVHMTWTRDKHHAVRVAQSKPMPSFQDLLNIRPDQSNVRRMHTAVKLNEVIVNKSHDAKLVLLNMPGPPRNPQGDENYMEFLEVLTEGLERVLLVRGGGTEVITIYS
Procedure: Oocytes were surgically collected from anesthetized female Xenopus adults under 0.17% tricaine and incubated for 1 hour with vigorous shaking in frog Ringer ND96 (96 mM sodium chloride, 2 mM potassium chloride, 1.8 mM calcium chloride, 1.0 mM magnesium chloride, and 5 mM Hepes/Tris, pH 7.4) in the presence of 2 mg/ml collagenase B. Oocytes were then washed four times in ND96, manually defolliculated, and incubated overnight in ND96 at 18° C. On the next day, defolliculated stage V–VI oocytes were injected with 50 nl of water or a solution containing cRNA at a concentration of 0.25–0.5 μg/μl (25 ng/oocyte). Oocytes were incubated at 17–18° C. in ND96 (96 mM sodium chloride, 2 mM potassium chloride, 1.8 mM calcium chloride, 1.0 mM magnesium chloride, and 5 mM Hepes/Tris, pH 7.4), supplemented with 2.5 mM sodium pyruvate and 5 mg/100 ml gentamicin, for 3–4 days. The incubation medium was changed every 24 hours. On the day of the experiment, oocytes were switched to Cl^−-free ND96 (96 mM Na^+ Na^+ isethionate, 2 mM K^+ gluconate, 6 mM Ca^2+ gluconate, 1 mM Mg^2+ gluconate, 5 mM Hepes, 2.5 mM sodium pyruvate, 5 mg/100 ml gentamicin, pH 7.4) for 2 hours prior to the uptake assay.
K^+—Cl^− cotransport was assessed by measuring tracer ^86Rb^+ uptake (NEN® Life Science Products of Boston, Mass.) in experimental groups of at least 15 oocytes. Since both KCC4 and KCC1 display minimal activity under isotonic conditions ^86Rb^+ uptake was generally assessed in oocytes swollen by a 30-minute incubation period in a hypotonic K^+ and Cl^−-free medium (50 mM N-methyl-D-glucamine (NMDG) gluconate, 4.6 mM Ca^2+ gluconate, 1.0 mM Mg^2+ gluconate, 5 mM Hepes, pH 7.4) with 1 mM ouabain, followed by a 60-minute uptake period in a hypotonic Na^+-free medium with variable K^+—Cl^− content. […] All uptake solutions also contained 1.8 mM CaCl2, 1 mM MgCl2, 5 mM Hepes, pH 7.4, and were supplemented with 1 mM ouabain and […] ^86Rb^+. […]
All uptake assays were performed at 32° C. […] Oocytes were dissolved in 10% SDS, and tracer activity was determined for each oocyte by β-scintillation counting.

[1] = biological target: mKCC4 mutant C256A/C469N/C565A/C647M/C633S (Mus musculus, UniProt Q9WVL3, C257A/C469N/C565A/C633S/C647M)
mKCC4 mutant C256A/C469N/C565A/C647M/C633S, sequence (Q9WVL3 whole entry C257A/C469N/C565A/C633S/C647M): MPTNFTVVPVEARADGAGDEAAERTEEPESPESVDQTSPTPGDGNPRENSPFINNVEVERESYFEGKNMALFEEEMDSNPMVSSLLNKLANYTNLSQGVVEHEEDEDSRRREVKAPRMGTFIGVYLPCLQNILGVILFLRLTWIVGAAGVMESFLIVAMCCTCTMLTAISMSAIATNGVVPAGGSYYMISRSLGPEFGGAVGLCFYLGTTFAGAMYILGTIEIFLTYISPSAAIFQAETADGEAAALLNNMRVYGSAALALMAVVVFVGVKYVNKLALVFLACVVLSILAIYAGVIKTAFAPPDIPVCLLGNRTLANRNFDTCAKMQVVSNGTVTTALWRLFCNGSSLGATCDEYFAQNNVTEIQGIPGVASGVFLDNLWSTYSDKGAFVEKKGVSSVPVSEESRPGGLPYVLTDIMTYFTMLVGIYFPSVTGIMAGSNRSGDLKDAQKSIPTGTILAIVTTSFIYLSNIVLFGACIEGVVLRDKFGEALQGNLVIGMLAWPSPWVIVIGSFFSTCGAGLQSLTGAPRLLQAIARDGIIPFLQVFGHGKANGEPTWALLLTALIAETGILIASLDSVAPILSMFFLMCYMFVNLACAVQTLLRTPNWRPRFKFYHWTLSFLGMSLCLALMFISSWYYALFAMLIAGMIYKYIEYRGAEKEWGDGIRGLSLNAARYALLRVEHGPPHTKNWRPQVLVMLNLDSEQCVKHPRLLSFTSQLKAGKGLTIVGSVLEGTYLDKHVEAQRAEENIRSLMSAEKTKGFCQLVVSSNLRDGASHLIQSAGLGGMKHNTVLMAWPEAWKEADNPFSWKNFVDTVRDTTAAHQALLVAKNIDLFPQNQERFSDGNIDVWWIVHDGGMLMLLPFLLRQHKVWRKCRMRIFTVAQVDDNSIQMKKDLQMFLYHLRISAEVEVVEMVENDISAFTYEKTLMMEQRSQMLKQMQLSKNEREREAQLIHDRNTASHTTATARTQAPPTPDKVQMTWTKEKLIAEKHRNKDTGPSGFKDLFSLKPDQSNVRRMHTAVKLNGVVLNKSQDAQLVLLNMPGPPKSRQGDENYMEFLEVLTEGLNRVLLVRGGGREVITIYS
Procedure: (§1) Mercury is known to inhibit several transporters via interaction with transmembrane or juxtamembrane cysteines (Kuwahara et al. (1997) Biochemistry 36:13973–13978; Jacoby (1999) Am J Physiol 277:C684–692). Given the inhibition of the KCCs by millimolar NEM at room temperature, presumed due to alkylation of cysteine residues (Mercado et al. (2000) J Biol Chem 275:30326–3034), the differential response of the KCCs to 50 μM mercury (Hg—Cl2) was examined. […] Of note, a cysteine residue in TM11 of NKCC1 is involved in the response of Na^+—K^+-2Cl^− cotransport to mercury (Jacoby (1999) Am J Physiol 277:C684–692).

[2] = biological target: mKCC4 mutant C256A/C469N/C565A/C647M (Mus musculus, UniProt Q9WVL3, C257A/C469N/C565A/C647M)
mKCC4 mutant C256A/C469N/C565A/C647M, sequence (Q9WVL3 whole entry C257A/C469N/C565A/C647M): as the sequence (Q9WVL3 whole entry C257A/C469N/C565A/C633S/C647M) above, with S633C counted along it
Procedure: as §1

CCN1C(=O)C=CC1=O [NEM, N-ethylmaleimide]
86Rb+ uptake due to endogenous oocyte K+-Cl- cotransporter (xKCC; NEM, H2O-injected oocytes, both isotonic and hypotonic): significantly increased

[K+] [Potassium]
Km (xKCC; read-out: Potassium Km): 27.7 mM

HgCl2 [Hg—Cl2]
response of quintuple mutant mKCC4 to HgCl2 [1]: resistant
response of quadruple mutant mKCC4 to HgCl2 [2]: weakly sensitive

Cl [Chloride]
Km (xKCC; read-out: Chloride Km): 15.4 mM
